Assay results reported in patent US10287291B2, “Seco-cyclopropapyrroloindole compounds, antibody-drug conjugates thereof, and methods of making and use” (priority 2016, dated 2019).
pEC50: −log10 of the molar value. Like-named read-outs stand apart in the source and are kept apart here.

Legend:
[1] = test system: H226 (human mesothelioma (lung) cancer cell line); assay: 72 hr ATP luminescence proliferation inhibition, H226; format: cell-based
Experimental: (§1) Proliferation inhibition was measured using a 72 hr ATP luminescence assay (Cheng et al., U.S. Pat. No. 8,394,922 B2 (2013)).
(§2) Proliferation inhibition was measured against: (a) H226 (human mesothelioma (lung) cancer cell line); (b) N87 (human gastric (stomach) cancer cell line); (c) OVCAR3 (human ovarian cancer cell line); (d) HCT116 (human colon cancer cell line); and (e) HCT116/VM46 (multidrug and paclitaxel resistant subline of HCT116).

[2] = test system: N87 (human gastric (stomach) cancer cell line); assay: 72 hr ATP luminescence proliferation inhibition, N87; format: cell-based; settings: read-out: Proliferation Inhibition of Cancer Cells EC50, N87
Experimental: as §1, §2

[3] = test system: HCT116 (human colon cancer cell line); assay: 72 hr ATP luminescence proliferation inhibition, HCT116; format: cell-based
Experimental: as §1, §2

[4] = test system: HCT116/VM46 (multidrug and paclitaxel resistant subline of HCT116); assay: 72 hr ATP luminescence proliferation inhibition, HCT116/VM46; format: cell-based, human; settings: read-out: Proliferation Inhibition of Cancer Cells EC50, HCT116/VM46
Experimental: as §1, §2

[5] = test system: OVCAR3 (human ovarian cancer cell line); assay: 72 hr ATP luminescence proliferation inhibition, OVCAR3; format: cell-based
Experimental: as §1, §2

[6] = Homo sapiens, NCI-H226, read-out: Proliferation Inhibition of Cancer Cells EC50, H226
[7] = Homo sapiens, HCT-116, read-out: Proliferation Inhibition of Cancer Cells EC50, HCT116
[8] = Homo sapiens, HCT-116/VM46, HCT116/VM46 cell line
[9] = Homo sapiens, OVCAR-3, read-out: Proliferation Inhibition of Cancer Cells EC50, OVCAR3
[10] = read-out: Proliferation Inhibition of Cancer Cells EC50, HCT116
[11] = read-out: Proliferation Inhibition of Cancer Cells EC50, H226
[12] = read-out: Proliferation Inhibition of Cancer Cells EC50, OVCAR3

Row | Structure (SMILES) | pEC50 [1, 6] | pEC50 ([2]; Homo sapiens) | pEC50 [3, 7] | pEC50 [4, 8] | pEC50 [5, 9] | pEC50 [3, 10] | pEC50 [1, 11] | pEC50 ([4]; HCT116/VM46 cell line) | pEC50 [2] | pEC50 [5, 12]
1 | COCCOc1ccc2[nH]c(C(=O)N3C[C@@H](CCl)c4c3cc(O)c3[nH]c(C(=O)N5CCOCC5)cc43)cc2c1 [Ia-01] | 10.85 | 11.15 | – | – | – | – | – | – | – | –
2 | CCOc1ccc2[nH]c(C(=O)N3C[C@@H](CCl)c4c3cc(O)c3[nH]c(C(=O)N5CCOCC5)cc43)cc2c1 [Ia-02] | 10.38 | 10.01 | 10.35 | 10.35 | 10.32 | – | – | – | – | –
3 | CCCOc1ccc2[nH]c(C(=O)N3C[C@@H](CCl)c4c3cc(O)c3[nH]c(C(=O)N5CCOCC5)cc43)cc2c1 [Ia-03] | 10.42 | 10.32 | 10.47 | 10.47 | 10.59 | – | – | – | – | –
4 | O=C(c1cc2c3c(cc(O)c2[nH]1)N(C(=O)c1cc2cc(OCC4CC4)ccc2[nH]1)C[C@H]3CCl)N1CCOCC1 [Ia-04] | 9.96 | 9.82 | 9.92 | 9.92 | 9.96 | – | – | – | – | –
5 | CC(C)COc1ccc2[nH]c(C(=O)N3C[C@@H](CCl)c4c3cc(O)c3[nH]c(C(=O)N5CCOCC5)cc43)cc2c1 [Ia-05] | 9.74 | 9.68 | 9.77 | 9.77 | 10.12 | – | – | – | – | –
6 | O=C(c1cc2c3c(cc(O)c2[nH]1)N(C(=O)c1cc2cc(OC4CCC4)ccc2[nH]1)C[C@H]3CCl)N1CCOCC1 [Ia-06] | – | – | – | – | – | 9.44 | 9.33 | 9.44 | 9.25 | 9.49
7 | O=C(c1cc2c3c(cc(O)c2[nH]1)N(C(=O)c1cc2cc(OCCC4CC4)ccc2[nH]1)C[C@H]3CCl)N1CCOCC1 [Ia-07] | 9.14 | 9.09 | 9.17 | 9.17 | 9.39 | – | – | – | – | –
8 | O=C(c1cc2c3c(cc(O)c2[nH]1)N(C(=O)c1cc2cc(OCCO)ccc2[nH]1)C[C@H]3CCl)N1CCOCC1 [Ia-08] | 8.47 | 8.89 | – | – | 8.68 | – | – | – | – | –
9 | COCCCOc1ccc2[nH]c(C(=O)N3C[C@@H](CCl)c4c3cc(O)c3[nH]c(C(=O)N5CCOCC5)cc43)cc2c1 [Ia-09] | 10.26 | 10.80 | – | – | 10.60 | – | – | – | – | –
10 | O=C(c1cc2c3c(cc(O)c2[nH]1)N(C(=O)c1cc2cc(OCC4CCCCC4)ccc2[nH]1)C[C@H]3CCl)N1CCOCC1 [Ia-10] | 9.60 | 9.82 | – | – | – | – | – | – | – | –
11 | COc1ccc2[nH]c(C(=O)N3C[C@@H](CCl)c4c3cc(O)c3[nH]c(C(=O)N5CCOCC5)cc43)cc2c1 [Ia-11] | 9.00 | 8.92 | 9.24 | 9.04 | 9.28 | – | – | – | – | –
12 | O=C(c1cc2c3c(cc(O)c2[nH]1)N(C(=O)c1cc2cc(-c4ccccc4)ccc2[nH]1)C[C@H]3CCl)N1CCOCC1 [Ia-12] | 9.28 | 8.89 | 9.40 | 9.54 | 9.27 | – | – | – | – | –
13 | CC(C)Oc1ccc2[nH]c(C(=O)N3C[C@@H](CCl)c4c3cc(O)c3[nH]c(C(=O)N5CCOCC5)cc43)cc2c1 [Ia-13] | 9.49 | 9.32 | 9.74 | 9.62 | 9.92 | – | – | – | – | –
14 | O=C(c1cc2c3c(cc(O)c2[nH]1)N(C(=O)c1cc2cc(OC4CCOCC4)ccc2[nH]1)C[C@H]3CCl)N1CCOCC1 [Ia-14] | 9.37 | 9.44 | 9.59 | 9.11 | 10.00 | – | – | – | – | –
15 | O=C(c1cc2c3c(cc(O)c2[nH]1)N(C(=O)c1cc2cc(OC4CCCC4)ccc2[nH]1)C[C@H]3CCl)N1CCOCC1 [Ia-15] | 9.55 | 9.49 | 9.66 | 9.59 | 9.68 | – | – | – | – | –
16 | CN(C)CCOc1ccc2[nH]c(C(=O)N3C[C@@H](CCl)c4c3cc(O)c3[nH]c(C(=O)N5CCOCC5)cc43)cc2c1 [Ia-16] | 9.40 | 9.30 | – | – | – | – | – | – | – | –

Row | Structure (SMILES) | pEC50 [1, 6] | pEC50 ([2]; Homo sapiens) | pEC50 [3, 7] | pEC50 [4, 8] | pEC50 [5, 9] | pEC50 [3, 10] | pEC50 [1, 11] | pEC50 ([4]; HCT116/VM46 cell line) | pEC50 [2] | pEC50 [5, 12]
17 | CNCCOc1ccc2[nH]c(C(=O)N3C[C@@H](CCl)c4c3cc(O)c3[nH]c(C(=O)N5CCOCC5)cc43)cc2c1 [Ia-17] | – | – | – | – | – | 7.72 | 8.80 | 7.60 | 7.44 | 7.74
18 | NCCOc1ccc2[nH]c(C(=O)N3C[C@@H](CCl)c4c3cc(O)c3[nH]c(C(=O)N5CCOCC5)cc43)cc2c1 [Ia-18] | 7.49 | 7.32 | 7.60 | 7.72 | 7.92 | – | – | – | – | –
19 | Nc1ccc2[nH]c(C(=O)N3C[C@@H](CCl)c4c3cc(O)c3[nH]c(C(=O)N5CCOCC5)cc43)cc2c1 [Ia-19] | 8.38 | 8.51 | 8.49 | 8.46 | 8.96 | – | – | – | – | –
20 | COc1ccc2[nH]c(C(=O)N3C[C@@H](CCl)c4c3cc(O)c3[nH]c(C(=O)N5CCN(C)CC5)cc43)cc2c1 [Ia-20] | – | – | – | – | – | 8.72 | 8.19 | 8.59 | 8.46 | 8.82
21 | CNCCN(C)C(=O)c1cc2c3c(cc(O)c2[nH]1)N(C(=O)c1cc2cc(OC)ccc2[nH]1)C[C@H]3CCl [Ia-21] | – | – | – | – | – | 9.07 | 9.00 | 9.30 | 8.66 | 8.92
22 | COc1ccc2[nH]c(C(=O)N3C[C@@H](CCl)c4c3cc(O)c3[nH]c(C(=O)NCCOCCO)cc43)cc2c1 [Ia-22] | – | – | – | – | – | 8.92 | 8.29 | 8.92 | 8.72 | 8.96
23 | CC[C@@H](CO)NC(=O)c1cc2c3c(cc(O)c2[nH]1)N(C(=O)c1cc2cc(OC)ccc2[nH]1)C[C@H]3CCl [Ia-23] | – | – | – | – | – | 9.05 | 8.12 | 8.72 | 8.59 | 8.96
24 | CNCCN(CCOCCO)C(=O)c1cc2c3c(cc(O)c2[nH]1)N(C(=O)c1cc2cc(OC)ccc2[nH]1)C[C@H]3CCl [Ia-24] | – | – | – | – | – | 6.60 | 6.60 | 6.60 | – | 6.60
25 | Nc1ccc2[nH]c(C(=O)N3C[C@@H](CCl)c4c3cc(O)c3[nH]c(C(=O)N5CCNCC5)cc43)cc2c1 [Ia-25] | – | – | – | – | – | 7.89 | 7.64 | 7.62 | 7.42 | 7.66
26 | CN1CCN(C(=O)c2cc3c4c(cc(O)c3[nH]2)N(C(=O)c2cc3cc(N)ccc3[nH]2)C[C@H]4CCl)CC1 [Ia-26] | – | – | – | – | – | 8.39 | 8.02 | 7.92 | – | 8.57
27 | CN(C)CCOc1ccc2[nH]c(C(=O)N3C[C@@H](CCl)c4c3cc(O)c3[nH]c(C(=O)Nc5ccc(O)cc5)cc43)cc2c1 [Ia-27] | – | – | – | – | – | – | 8.85 | – | 8.46 | –
28 | CCCOc1ccc2[nH]c(C(=O)N3C[C@@H](CCl)c4c3cc(O)c3[nH]c(C(=O)N5CCCOCC5)cc43)cc2c1 [Ia-28] | – | – | – | – | – | 10.10 | 9.52 | 10.05 | 10.18 | 10.24
29 | COCCOc1ccc2[nH]c(C(=O)N3C[C@@H](CCl)c4c3cc(O)c3[nH]c(C(=O)Nc5ccc(N)cc5)cc43)cc2c1 [Ia-29] | – | – | – | – | – | – | 9.20 | – | 9.59 | –
30 | O=C(Nc1ccc2[nH]c(C(=O)N3C[C@@H](CCl)c4c3cc(O)c3[nH]c(C(=O)N5CCOCC5)cc43)cc2c1)c1ccc(O)cc1 [Id-01] | – | 8.64 | 9.03 | – | 8.96 | – | – | – | – | –
31 | Nc1ccc(C(=O)Nc2ccc3[nH]c(C(=O)N4C[C@@H](CCl)c5c4cc(O)c4[nH]c(C(=O)N6CCOCC6)cc54)cc3c2)cc1 [Id-02] | 8.92 | 8.85 | – | – | – | – | – | – | – | –
